According to EP1401829B1, “NOVEL HETEROCYCLIC ANTIBACTERIAL COMPOUNDS” (Microbiotix, Inc., priority 2001, dated 2002):
Values after ≈ are worked out from the molar mass of the structure shown. Read-outs that look alike come from different tables or passages of the source. Marks after values point to notes of the source that are not given here.

Columns and labels:
B. subtilis Pol IIIC = molecular target: T1, B. subtilis Pol IIIC (Bacillus subtilis, UniProt P13267); assay: Polymerase IIIC (Pol IIIC) assay, determination of Ki values; assay type: biochemical; conditions: assay in absence of dGTP or dATP, Ki is the concentration that reduces control polymerase IIIC activity by 50 percent; for Ki: Ki (µM) Pol IIIC
T1 construct: made in house
T1 sequence (P13267 whole entry): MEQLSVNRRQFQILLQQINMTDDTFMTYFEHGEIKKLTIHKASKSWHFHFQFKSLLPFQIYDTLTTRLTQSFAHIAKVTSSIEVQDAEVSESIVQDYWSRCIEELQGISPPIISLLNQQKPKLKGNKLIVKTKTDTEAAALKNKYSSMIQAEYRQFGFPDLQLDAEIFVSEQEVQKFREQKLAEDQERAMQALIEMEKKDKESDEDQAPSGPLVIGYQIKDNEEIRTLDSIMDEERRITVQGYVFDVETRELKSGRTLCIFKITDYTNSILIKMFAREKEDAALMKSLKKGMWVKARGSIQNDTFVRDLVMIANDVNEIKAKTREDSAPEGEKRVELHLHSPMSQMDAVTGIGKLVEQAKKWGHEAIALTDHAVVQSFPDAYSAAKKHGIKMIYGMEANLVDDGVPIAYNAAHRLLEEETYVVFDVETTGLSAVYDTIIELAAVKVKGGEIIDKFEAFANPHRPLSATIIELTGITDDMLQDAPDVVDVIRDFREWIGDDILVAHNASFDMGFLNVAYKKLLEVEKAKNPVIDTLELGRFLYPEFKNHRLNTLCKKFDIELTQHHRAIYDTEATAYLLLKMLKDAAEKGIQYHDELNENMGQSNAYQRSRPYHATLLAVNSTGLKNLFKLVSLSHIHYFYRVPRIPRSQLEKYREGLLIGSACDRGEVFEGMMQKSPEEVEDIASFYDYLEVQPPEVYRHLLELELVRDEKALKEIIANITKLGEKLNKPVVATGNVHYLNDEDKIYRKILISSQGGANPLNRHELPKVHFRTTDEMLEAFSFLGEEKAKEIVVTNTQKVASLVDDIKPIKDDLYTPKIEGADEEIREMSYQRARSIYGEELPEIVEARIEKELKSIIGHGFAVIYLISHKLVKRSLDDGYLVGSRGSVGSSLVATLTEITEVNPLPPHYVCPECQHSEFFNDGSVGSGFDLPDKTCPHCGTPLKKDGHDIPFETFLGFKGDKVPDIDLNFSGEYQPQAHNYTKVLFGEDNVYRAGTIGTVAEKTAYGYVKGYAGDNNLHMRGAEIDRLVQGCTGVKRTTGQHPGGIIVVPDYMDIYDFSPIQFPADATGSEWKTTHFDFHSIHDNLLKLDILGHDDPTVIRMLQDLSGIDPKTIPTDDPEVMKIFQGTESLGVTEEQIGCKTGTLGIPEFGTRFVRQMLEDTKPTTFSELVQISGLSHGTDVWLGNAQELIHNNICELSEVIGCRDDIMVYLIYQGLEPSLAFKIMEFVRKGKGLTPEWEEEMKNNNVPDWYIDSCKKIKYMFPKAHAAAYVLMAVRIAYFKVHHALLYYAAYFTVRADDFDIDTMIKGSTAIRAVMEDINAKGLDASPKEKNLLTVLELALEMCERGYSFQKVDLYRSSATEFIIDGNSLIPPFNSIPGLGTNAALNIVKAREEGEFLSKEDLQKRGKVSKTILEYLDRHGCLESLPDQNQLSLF
Method in brief: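 Isolated B. subtilis Pol IIIC (0.025–0.06 units) run 10 min at 30°C in 30 mM Tris pH 7.5, 10 mM Mg acetate, 4 mM DTT, 20% glycerol. Substrates were 0.4 mg/ml activated calf thymus DNA, 25 µM dNTPs and 10 µM [3H]dTTP, with dGTP or dATP omitted per compound structure.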

B. subtilis = assay: Minimal Inhibitory Concentration (MIC) determination, 96 well plates; assay type: cell-based, Bacillus subtilis; conditions: Bacillus subtilis; HBI medium, 16 to 18 hours at 37°C; read-out: MIC (µg/ml) B. subtilis
Method in brief: (§1)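 Broth growth in Heart-Brain Infusion medium, seeded at about 1x10^5 CFU/ml, 16 to 18 hours at 37°C. Growth read at OD 600 nm as percent of untreated control; five concentrations per drug, five data points each, MIC reported in µg/ml.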

E. coli = assay: as above; assay type: cell-based, Escherichia coli; conditions: Escherichia coli, read-out: MIC (µg/ml) E. coli
Method in brief: (§2)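 Cultures seeded at approximately 1x10^5 CFU/ml in Heart-Brain Infusion medium were exposed to five compound concentrations, five data points each, for 16 to 18 hours at 37°C. Growth at OD 600 nm was expressed as percent of control, and MIC values are given in µg/ml.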

S.aureus (Smith) = assay: as above; assay type: cell-based, Staphylococcus aureus; conditions: Staphylococcus aureus
Method in brief: as §1

MRSA 1123 = assay: MIC against clinically relevant strains; assay type: cell-based; conditions: Staphylococcus aureus, methicillin resistant S. aureus strain
Protocol: (§3) The following methods were used to characterize representative compounds. Minimal Inhibitory Concentration (MIC) determinations. MIC values were determined in 96 well plates, with bacterial growth monitored at OD 600 nm in 200µl following an initial bacterial seeding at approximately 1x10^5 colony forming units (CFU)/ml. Each drug is evaluated at five concentrations, with five data points at each dilution. MIC values (µg/ml) were determined against actively growing cultures in Heart-Brain Infusion (HBI) medium. Cell growth in cultures supplemented with a test compound was calculated as a percent of control at OD 600 nm after 16 to 18 hours at 37°C. This plate format conserves test compound and provides precise, quantitative data with low standard deviation determinations. Polymerase IIIC (Pol IIIC) assay. DNA polymerase activity (or inhibition thereof) was measured in a 96-well plate format. B. subtilis Pol IIIC was isolated as described by Hammond and Brown (Protein Expr. Purif., 3: 65-70 (1992)). Each 25 µl assay contained 30 mM Tris, pH 7.5, 10 mM magnesium acetate, 4 mM dithiothreitol, 20% glycerol, with 25 µM dATP, dCTP, dGTP and 10 µM dTTP (^3H-labelled at 1.44 Ci/mmole) and 0.4 mg/ml activated calf thymus DNA as substrates, as described previously (see Barnes et al, op. cit). Assays were initiated by the addition of 0.025 to 0.06 units of enzyme 1 unit is the amount required to incorporate 250 pmoles of [^3H] dTMP in a standard assay), incubated for 10 minutes at 30°C and terminated by the addition of 200 µl of cold 10% trichloroacetic acid (TCA),10 mM sodium pyrophosphate. Precipitated labeled DNA was collected on glass fiber filter plates, washed, dried, and counted in a liquid scintillation counter. Determination of Ki values. DNA polymerase activity was measured in a 96-well plate format in the absence of dGTP or dATP, depending on the structure of the test compound. Each 25 µl assay contained 30 mM Tris, pH 7.5, 10 mM magnesium acetate, 4 mM dithiothreitol, 20% glycerol, with 25 µM dATP, dCTP, and 10 µM dTTP (^3H-labelled at 1.44 Ci/mmole) and 0.4 mg/ml activated calf thymus DNA as substrates, as described previously. To each well were added 2 µl of compound solution to give final concentrations ranging from 20 - 0.027 µg/ml in the assay. Assays were initiated by the addition of 0.025 to 0.06 units of enzyme (1 unit is the amount required to incorporate 250 pmoles of [^3H] dTMP in a standard assay), incubated for 10 minutes at 30 °C and terminated by the addition of 200 µl of cold 10% trichloroacetic acid, 10 mM sodium pyrophosphate. Precipitated labeled DNA was collected on glass fiber filter plates, washed, dried, and counted in a liquid scintillation counter. Ki is the concentration of test compound that reduces the control polymerase IIIC activity by 50 percent.
(§4) Compounds were also tested for antibacterial activity against certain clinically relevant strains, e.g., methicillin sensitive (MSSA) and methicillin resistant (MRSA) strains of Staphylococcus aureus.

MSSA108 = assay: MIC against clinically relevant strains; assay type: cell-based; conditions: Staphylococcus aureus; methicillin sensitive S. aureus strain
Protocol: as §3, §4

MRSA1094 = assay: MIC against clinically relevant strains; assay type: cell-based; conditions: Staphylococcus aureus; methicillin resistant S. aureus strain
Protocol: as §3, §4

MRSA1132 = assay: MIC against clinically relevant strains; assay type: cell-based; conditions: Staphylococcus aureus; methicillin resistant S. aureus strain
Protocol: as §3, §4

E. fecalis = assay: Minimal Inhibitory Concentration (MIC) determination, 96 well plates; assay type: cell-based, Enterococcus fecalis; conditions: Enterococcus; HBI medium, 16 to 18 hours at 37°C; read-out: MIC (µg/ml) E. fecalis
Method in brief: as §1

E. fecium = assay: as above; assay type: cell-based, Enterococcus fecium; conditions: Enterococcus; HBI medium, 16 to 18 hours at 37°C; read-out: MIC (µg/ml) E. fecium
Method in brief: as §1

S. aureus = assay: as above; assay type: cell-based, Staphylococcus aureus; conditions: Staphylococcus aureus, read-out: MIC (µg/ml) S. aureus
Method in brief: as §2

VRE 700802 = assay: In vivo efficacy of Compound 70 in mouse models; parameters: species or system Enterococcus faecalis; conditions: mice, 3x10^8 CFU/mouse + 5% Mucin; positive control, 100mg/kg, t=0
Protocol: Swiss Webster mice, ca. 20 g each, were infected with Staphylococcus aureus (Smith strain) by the intraperitoneal route. Test compounds (2, 4, 5, 6, 7, 8, 10, 12) were dissolved in 10% dimethylsulfoxide in peanut oil to a concentration of 2 mg/ml. Vancomycin was used as positive control drug (i.e., protection from lethal infection). Fifteen minutes after infection, test compounds, vancomycin, or vehicle alone were given intraperitoneally to groups of five mice each. Animals were monitored for three days, and the number of mice surviving was tabulated for each treatment.
Using the same basic procedure as described above, the in vivo efficacy of Compound 70 was also evaluated at various doses in mice infected with S. aureaus (Smith), MRSA 1094, Enterococcus faecalis, or vancomycin-resistant Enterococcus faecalis strain VRE 700802. […] Negative controls were mice infected that received no treatment. Mucin was employed as an adjuvant to facilitate bacterial infection in mice, where indicated.

[1] = HBI medium, 16 to 18 hours at 37°C
[2] = HBI medium, 16 to 18 hours at 37°C, read-out: MIC (µg/ml) S.aureus (Smith)
[3] = table of MSSA/MRSA strains, read-out: MIC (µg/ml) S. aureus (Smith)

| SMILES | Ki (B. subtilis Pol IIIC) [µM] | MIC (B. subtilis) [µg/mL] | MIC (E. coli; [1]) [µg/mL] | MIC (S.aureus (Smith); [2]) [µg/mL] | MIC (S.aureus (Smith); [3]) [µg/mL] | MIC (MRSA 1123) [µg/mL] | MIC (MSSA108) [µg/mL] | MIC (MRSA1094) [µg/mL] | MIC (MRSA1132) [µg/mL] | MIC (E. fecalis) [µg/mL] | MIC (E. fecium) [µg/mL] | MIC (S. aureus; [1]) [µg/mL] | MIC (S. aureus; table of MSSA/MRSA strains) [µg/mL] | Ki (µM) Pol IIIC (B. subtilis Pol IIIC) | % Survival at 72 hours (VRE 700802) | MIC (E. coli) [µg/mL] |
| --- | --- | --- | --- | --- | --- | --- | --- | --- | --- | --- | --- | --- | --- | --- | --- | --- |
| CCc1cc(Nc2cc(=O)n(CCCCN3CCN(c4c(F)cc5c(=O)c(C(=O)O)cn(CC)c5c4Cl)CC3)c(=O)[nH]2)ccc1C [Compound 5, 3-{4-[1-(1-ethyl-3-carboxy-4-oxo-6-fluoro-8-chloro-7-quinolyl)-4-piperazinyl]butyl}-6-(3-ethyl-4-methylanilino)uracil] | 0.016 | 0.078 (≈ 0.119 µM) | 10 (≈ 15.3 µM) | 0.156 (≈ 0.239 µM) | 0.156 (≈ 0.239 µM) | 0.625 (≈ 0.957 µM) | 0.625 (≈ 0.957 µM) | 0.625 (≈ 0.957 µM) | 0.625 (≈ 0.957 µM) | 1.25 (≈ 1.91 µM) | 2.5 (≈ 3.83 µM) | 0.156 (≈ 0.239 µM) | 0.156 (≈ 0.239 µM) |  |  |  |
| CCc1cc(Nc2cc(=O)n(CCCCN3CCN(c4nc5c(cc4F)c(=O)c(C(=O)O)cn5CC)CC3)c(=O)[nH]2)ccc1C [Compound 6, 3-{4-[1-(1-ethyl-3-carboxy-4-oxo-6-fluoro-8-aza-7-quinolyl)-4-piperazinyl]butyl}-6-(3-ethyl-4-methylanilino)uracil] | 0.018 | 0.156 (≈ 0.252 µM) | > 20 | 0.625 (≈ 1.01 µM) | 0.625 (≈ 1.01 µM) | 0.625 (≈ 1.01 µM) | 0.625 (≈ 1.01 µM) | 1.25 (≈ 2.02 µM) | 0.625 (≈ 1.01 µM) | 1.25 (≈ 2.02 µM) | 1.25 (≈ 2.02 µM) | 0.625 (≈ 1.01 µM) | 0.625 (≈ 1.01 µM) |  |  |  |
| Cc1ccc(Nc2cc(=O)n(CCCCN3CCN(c4cc5c(cc4F)c(=O)c(C(=O)O)cn5C4CC4)C[C@H]3C)c(=O)[nH]2)cc1C [Compound 96, (R)-3-{4-[1-(1-cyclopropyl-3-carboxy-4-oxo-6-fluoro-7-quinolyl)-3-methyl-4-piperazinyl]butyl}-6-(3,4-dimethylanilino)uracil] | 0.019 | 0.156 (≈ 0.247 µM) | 5 (≈ 7.93 µM) | 0.313 (≈ 0.496 µM) |  |  |  |  |  | 0.625 (≈ 0.991 µM) | 0.625 (≈ 0.991 µM) | 0.625 (≈ 0.991 µM) |  |  |  |  |
| Cc1ccc(Nc2cc(=O)n(CCCCN3CCN(c4cc5c(cc4F)c(=O)c(C(=O)O)cn5C4CC4)C[C@@H]3C)c(=O)[nH]2)cc1C [Compound 97, (S)-3-{4-[1-(1-cyclopropyl-3-carboxy-4-oxo-6-fluoro-7-quinolyl)-3-methyl-4-piperazinyl]butyl}-6-(3,4-dimethylanilino)uracil] | 0.037 | 0.235 (≈ 0.373 µM) | 40 (≈ 63.4 µM) | 0.625 (≈ 0.991 µM) |  |  |  |  |  | 0.625 (≈ 0.991 µM) | 1.25 (≈ 1.98 µM) | 1.25 (≈ 1.98 µM) |  |  |  |  |
| Cc1ccc(Nc2cc(=O)n(CCCCN3CCN(c4c(F)cc5c(=O)c(C(=O)O)cn(C6CC6)c5c4F)C[C@H]3C)c(=O)[nH]2)cc1C [Compound 98, (R)-3-{4-[1-(1-cyclopropyl-3-carboxy-4-oxo-6,8-difluoro-7-quinolyl)-3-methyl-4-piperazinyl]butyl}-6-(3,4-dimethylanilino)uracil] | 0.029 | 0.313 (≈ 0.482 µM) | 5 (≈ 7.71 µM) | 0.625 (≈ 0.963 µM) |  |  |  |  |  | 1.25 (≈ 1.93 µM) | 1.25 (≈ 1.93 µM) | 1.25 (≈ 1.93 µM) |  |  |  |  |
| Cc1ccc(Nc2cc(=O)n(CCCCN3CCN(c4c(F)cc5c(=O)c(C(=O)O)cn(C6CC6)c5c4F)C[C@@H]3C)c(=O)[nH]2)cc1C [Compound 99, (S)-3-{4-[1-(1-cyclopropyl-3-carboxy-4-oxo-6,8-difluoro-7-quinolyl)-3-methyl-4-piperazinyl]butyl}-6-(3,4-dimethylanilino)uracil] | 0.03 | 0.156 (≈ 0.24 µM) | 0.625 (≈ 0.963 µM) | 0.156 (≈ 0.24 µM) |  |  |  |  |  | 0.625 (≈ 0.963 µM) | 1.25 (≈ 1.93 µM) | 0.313 (≈ 0.482 µM) |  |  |  |  |
| CCc1cc(Nc2cc(=O)n(CCCCN3CCN(c4cc5c(cc4F)c(=O)c(C(=O)O)cn5C4CC4)C[C@@H]3C)c(=O)[nH]2)ccc1C [Compound 100, (S)-3-{4-[1-(1-cyclopropyl-3-carboxy-4-oxo-6-fluoro-7-quinolyl)-3-methyl-4-piperazinyl]butyl}-6-(3-ethyl-4-methylanilino)uracil] | 0.011 | 0.156 (≈ 0.242 µM) | 50 (≈ 77.5 µM) | 0.625 (≈ 0.969 µM) |  |  |  |  |  | 0.475 (≈ 0.737 µM) | 0.937 (≈ 1.45 µM) | 0.937 (≈ 1.45 µM) |  |  |  |  |
| Cc1ccc(Nc2cc(=O)n(CCCCN3CCN(c4c(F)cc5c(=O)c(C(=O)O)cn(C6CC6)c5c4F)CC3)c(=O)[nH]2)cc1C [Compound 101, 3-{4-[1-(1-cyclopropyl-3-carboxy-4-oxo-6,8-difluoro-7-quinolyl)-4-piperazinyl]butyl}-6-(3,4-dimethylanilino)uracil] | 0.024 | 0.235 (≈ 0.37 µM) | 5 (≈ 7.88 µM) | 0.313 (≈ 0.493 µM) |  |  |  |  |  | 0.937 (≈ 1.48 µM) | 1.25 (≈ 1.97 µM) | 0.625 (≈ 0.985 µM) |  |  |  |  |
| O=C(O)c1cn(C2CC2)c2cc(N3CCNCC3)c(F)cc2c1=O [cflxn, ciprofloxacin, reference compound] |  | 0.156 (≈ 0.471 µM) | 0.078 (≈ 0.235 µM) | 0.078 (≈ 0.235 µM) |  |  |  |  |  |  |  | 0.156 (≈ 0.471 µM) |  | inactive | ciprofloxacin (100mg/kg, t=0) 90% (9/10)** |  |
| CCn1cc(C(=O)O)c(=O)c2cc(F)c(N3CCNCC3)cc21 [nflxn, norfloxacin, reference compound] |  | 0.625 (≈ 1.96 µM) |  | 0.156 (≈ 0.489 µM) |  |  |  |  |  | 2.5 (≈ 7.83 µM) | 20 (≈ 62.6 µM) | 0.625 (≈ 1.96 µM) |  | inactive |  | 0.078 (≈ 0.244 µM) |
